Laboratory results reported in ChEMBL document CHEMBL3351773, “Effect of p-aminophenols on tyrosinase activity” (Bioorg Med Chem, 2014).
Active and inactive are the calls of the source. The rule behind the calls is not given here.

Experiments:
[1] = target: T1, Tyrosinase (Agaricus bisporus) (UniProt O42713); test: Inhibition of mushroom tyrosinase using L-tyrosine as substrate at 200 uM by spectrophotometry relative to control
T1 sequence (whole entry): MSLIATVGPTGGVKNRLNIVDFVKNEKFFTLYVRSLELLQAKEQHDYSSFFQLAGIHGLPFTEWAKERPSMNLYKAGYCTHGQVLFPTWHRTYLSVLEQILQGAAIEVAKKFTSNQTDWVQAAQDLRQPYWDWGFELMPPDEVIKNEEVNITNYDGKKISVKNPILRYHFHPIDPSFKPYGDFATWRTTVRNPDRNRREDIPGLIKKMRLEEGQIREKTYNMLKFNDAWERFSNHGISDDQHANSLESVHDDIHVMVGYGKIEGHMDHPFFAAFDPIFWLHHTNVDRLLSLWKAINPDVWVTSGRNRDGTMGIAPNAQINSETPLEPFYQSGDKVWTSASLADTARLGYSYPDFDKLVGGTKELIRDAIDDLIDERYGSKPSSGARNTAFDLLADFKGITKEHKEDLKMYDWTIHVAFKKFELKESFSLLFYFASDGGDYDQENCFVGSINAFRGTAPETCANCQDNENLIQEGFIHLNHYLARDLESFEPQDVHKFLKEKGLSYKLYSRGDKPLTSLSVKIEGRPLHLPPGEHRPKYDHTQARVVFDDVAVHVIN

[2] = target: T1, Tyrosinase (Agaricus bisporus); test: Inhibition of mushroom tyrosinase using L-tyrosine as substrate at 100 uM by spectrophotometry relative to control
[3] = target: T1, Tyrosinase (Agaricus bisporus); test: Inhibition of mushroom tyrosinase using L-DOPA as substrate at 200 uM by spectrophotometry relative to control
[4] = target: T1, Tyrosinase (Agaricus bisporus); test: Non-competitive inhibition of mushroom tyrosinase using L-DOPA as substrate by Lineweaver-Burk double reciprocal plot method
Tyrosinase [5] = target: T2, Tyrosinase (Agaricus bisporus, UniProt O42713); test: (§1) Inhibition of mushroom tyrosinase using L-tyrosine as substrate by spectrophotometry
T2 sequence (O42713 whole entry): T1 sequence (whole entry)

[6] = target: T1, Tyrosinase (Agaricus bisporus); test: as §1
[7] = target: T1, Tyrosinase (Agaricus bisporus); test: Inhibition of mushroom tyrosinase using L-DOPA as substrate at 100 uM by spectrophotometry relative to control
Tyrosinase [8] = target: T2, Tyrosinase; test: (§2) Inhibition of mushroom tyrosinase using L-DOPA as substrate by spectrophotometry relative to control
[9] = target: T1, Tyrosinase (Agaricus bisporus); test: as §2
[10] = target: T1, Tyrosinase (Agaricus bisporus); test: Non-competitive inhibition of mushroom tyrosinase using L-tyrosine as substrate by Lineweaver-Burk double reciprocal plot method

Row | inhibition [1] | inhibition [2] | inhibition [3] | inhibition [4] | IC50 (Tyrosinase [5]) | inhibition [6] | inhibition [7] | IC50 (Tyrosinase [8]) | inhibition [9] | inhibition [10] | SMILES
1 | 27% | 23% | 45% | Active | > 200 µM | Dose-dependent effect | 25% | > 200 µM | Dose-dependent effect | Active | CCCCCCCCCCCCNc1ccc(O)cc1
2 |  |  |  | Active | 5.7 µM | Dose-dependent effect |  | 30.1 µM | Dose-dependent effect | Active | CCCCCCCCCCNc1ccc(O)cc1
